Data: PubChem BioAssay (NCI)
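Protocol summary: plate cells (96-well), add compound at 5 concentrations, incubate 48 h, interpolate endpoints linearly. GI50 = concentration required for 50% inhibition of growth. TGI denotes the concentration required for complete inhibition of growth.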

Key:
Assay in all cases: NCI anticancer screen, dose series, 48 h
OVCAR-8 ovarian = test system: OVCAR-8 ovarian
M14 melanoma = test system: M14 melanoma
OVCAR-5 ovarian = test system: OVCAR-5 ovarian
RPMI-8226 leukemia = test system: RPMI-8226 leukemia
T-47D breast = test system: T-47D breast
CAKI-1 renal = test system: CAKI-1 renal
NCI/ADR-RES ovarian = test system: NCI/ADR-RES ovarian
HCT-15 colon = test system: HCT-15 colon
A549 NSCLC = test system: A549 NSCLC
RXF 393 renal = test system: RXF 393 renal
TK-10 renal = test system: TK-10 renal
LOX IMVI melanoma = test system: LOX IMVI melanoma
HCC-2998 colon = test system: HCC-2998 colon
KM12 colon = test system: KM12 colon
SN12C renal = test system: SN12C renal
UACC-62 melanoma = test system: UACC-62 melanoma
SK-OV-3 ovarian = test system: SK-OV-3 ovarian
PC-3 prostate = test system: PC-3 prostate
U251 CNS = test system: U251 CNS
SW-620 colon = test system: SW-620 colon
HOP-62 NSCLC = test system: HOP-62 NSCLC
A498 renal = test system: A498 renal
UACC-257 melanoma = test system: UACC-257 melanoma
SF-268 CNS = test system: SF-268 CNS
MALME-3M melanoma = test system: MALME-3M melanoma
UO-31 renal = test system: UO-31 renal
HL-60(TB) leukemia = test system: HL-60(TB) leukemia
HCT-116 colon = test system: HCT-116 colon
EKVX NSCLC = test system: EKVX NSCLC
OVCAR-4 ovarian = test system: OVCAR-4 ovarian
OVCAR-3 ovarian = test system: OVCAR-3 ovarian
786-0 renal = test system: 786-0 renal
ACHN renal = test system: ACHN renal
HOP-92 NSCLC = test system: HOP-92 NSCLC
NCI-H23 lung = test system: NCI-H23 lung
NCI-H460 lung = test system: NCI-H460 lung
SNB-75 CNS = test system: SNB-75 CNS
IGROV1 ovarian = test system: IGROV1 ovarian
HT29 colon = test system: HT29 colon
SK-MEL-2 melanoma = test system: SK-MEL-2 melanoma
COLO 205 colon = test system: COLO 205 colon
SR leukemia = test system: SR leukemia
SK-MEL-28 melanoma = test system: SK-MEL-28 melanoma
SK-MEL-5 melanoma = test system: SK-MEL-5 melanoma
DU-145 prostate = test system: DU-145 prostate
MDA-MB-231 breast = test system: MDA-MB-231 breast
MOLT-4 leukemia = test system: MOLT-4 leukemia
SNB-19 CNS = test system: SNB-19 CNS
MDA-MB-435 = test system: MDA-MB-435
SF-539 CNS = test system: SF-539 CNS
NCI-H226 lung = test system: NCI-H226 lung
K-562 leukemia = test system: K-562 leukemia
HS 578T breast = test system: HS 578T breast
MCF7 breast = test system: MCF7 breast
NCI-H522 lung = test system: NCI-H522 lung
BT-549 breast = test system: BT-549 breast
CCRF-CEM leukemia = test system: CCRF-CEM leukemia

For `C/C(=N\NC(=O)c1ccc(C(C)(C)C)cc1)c1ccc(O)cc1O`, the GI50 (OVCAR-8 ovarian) was 673 nM, the TGI (OVCAR-8 ovarian) was over 100000 nM and the GI50 (M14 melanoma) was 532 nM. The TGI (M14 melanoma) was 7340 nM, the GI50 (OVCAR-5 ovarian) was 862 nM and the TGI (OVCAR-5 ovarian) was over 100000 nM. The GI50 (RPMI-8226 leukemia) was 763 nM, the TGI (RPMI-8226 leukemia) was over 59900 nM and the GI50 (T-47D breast) was 1070 nM. It also gave a TGI (T-47D breast) of over 100000 nM, a GI50 (CAKI-1 renal) of 392 nM and a TGI (CAKI-1 renal) of 4720 nM. It also gave a GI50 (NCI/ADR-RES ovarian) of 416 nM, a TGI (NCI/ADR-RES ovarian) of over 100000 nM and a GI50 (HCT-15 colon) of 396 nM. For the same compound, the TGI (HCT-15 colon) was over 100000 nM, the GI50 (A549 NSCLC) was 751 nM and the TGI (A549 NSCLC) was over 100000 nM. The GI50 (RXF 393 renal) was 2110 nM, the TGI (RXF 393 renal) was 10200 nM and the GI50 (TK-10 renal) was 886 nM. For the same compound, the TGI (TK-10 renal) was over 100000 nM, the GI50 (LOX IMVI melanoma) was 318 nM and the TGI (LOX IMVI melanoma) was 1920 nM. The GI50 (HCC-2998 colon) was 638 nM, the TGI (HCC-2998 colon) was 61400 nM and the GI50 (KM12 colon) was 511 nM. It also gave a TGI (KM12 colon) of over 100000 nM, a GI50 (SN12C renal) of 1240 nM and a TGI (SN12C renal) of over 100000 nM. It also gave a GI50 (UACC-62 melanoma) of 671 nM, a TGI (UACC-62 melanoma) of over 100000 nM and a GI50 (SK-OV-3 ovarian) of 1060 nM. It also gave a TGI (SK-OV-3 ovarian) of over 100000 nM, a GI50 (PC-3 prostate) of 1080 nM and a TGI (PC-3 prostate) of over 100000 nM. For the same compound, the GI50 (U251 CNS) was 615 nM, the TGI (U251 CNS) was over 100000 nM and the GI50 (SW-620 colon) was 602 nM. The TGI (SW-620 colon) was over 100000 nM, the GI50 (HOP-62 NSCLC) was 484 nM and the TGI (HOP-62 NSCLC) was over 100000 nM. The GI50 (A498 renal) was 1380 nM, the TGI (A498 renal) was over 100000 nM and the GI50 (UACC-257 melanoma) was 1510 nM. It also gave a TGI (UACC-257 melanoma) of over 100000 nM, a GI50 (SF-268 CNS) of 528 nM and a TGI (SF-268 CNS) of over 100000 nM. It also gave a GI50 (MALME-3M melanoma) of 1140 nM, a TGI (MALME-3M melanoma) of 45200 nM and a GI50 (UO-31 renal) of 377 nM. For the same compound, the TGI (UO-31 renal) was over 100000 nM, the GI50 (HL-60(TB) leukemia) was 1080 nM and the TGI (HL-60(TB) leukemia) was 11100 nM. The GI50 (HCT-116 colon) was 298 nM, the TGI (HCT-116 colon) was over 100000 nM and the GI50 (EKVX NSCLC) was 442 nM. It also gave a TGI (EKVX NSCLC) of over 100000 nM, a GI50 (OVCAR-4 ovarian) of 306 nM and a GI50 (OVCAR-3 ovarian) of 309 nM. It also gave a TGI (OVCAR-3 ovarian) of over 100000 nM, a GI50 (786-0 renal) of 985 nM and a TGI (786-0 renal) of 13500 nM. It also gave a GI50 (ACHN renal) of 491 nM, a TGI (ACHN renal) of over 100000 nM and a GI50 (HOP-92 NSCLC) of 4220 nM. For the same compound, the TGI (HOP-92 NSCLC) was over 100000 nM, the GI50 (NCI-H23 lung) was 1180 nM and the TGI (NCI-H23 lung) was over 100000 nM. It also gave a GI50 (NCI-H460 lung) of 347 nM, a TGI (NCI-H460 lung) of 10300 nM and a GI50 (SNB-75 CNS) of 1270 nM. For the same compound, the TGI (SNB-75 CNS) was 17900 nM, the GI50 (IGROV1 ovarian) was 572 nM and the TGI (IGROV1 ovarian) was over 100000 nM. The GI50 (HT29 colon) was 689 nM, the TGI (HT29 colon) was 14200 nM and the GI50 (SK-MEL-2 melanoma) was 2380 nM. It also gave a TGI (SK-MEL-2 melanoma) of over 100000 nM, a GI50 (COLO 205 colon) of 386 nM and a TGI (COLO 205 colon) of over 34100 nM. For the same compound, the GI50 (SR leukemia) was 379 nM, the TGI (SR leukemia) was over 62200 nM and the GI50 (SK-MEL-28 melanoma) was 1670 nM. The TGI (SK-MEL-28 melanoma) was over 100000 nM, the GI50 (SK-MEL-5 melanoma) was 1470 nM and the TGI (SK-MEL-5 melanoma) was 4740 nM. The GI50 (DU-145 prostate) was 705 nM, the TGI (DU-145 prostate) was over 100000 nM and the GI50 (MDA-MB-231 breast) was 791 nM. For the same compound, the TGI (MDA-MB-231 breast) was over 100000 nM, the GI50 (MOLT-4 leukemia) was 344 nM and the TGI (MOLT-4 leukemia) was over 100000 nM. The GI50 (SNB-19 CNS) was 2360 nM, the TGI (SNB-19 CNS) was over 100000 nM and the GI50 (MDA-MB-435) was 810 nM. The TGI (MDA-MB-435) was over 100000 nM, the GI50 (SF-539 CNS) was 648 nM and the TGI (SF-539 CNS) was over 70400 nM. For the same compound, the GI50 (NCI-H226 lung) was 843 nM, the TGI (NCI-H226 lung) was 14000 nM and the GI50 (K-562 leukemia) was 568 nM. It also gave a TGI (K-562 leukemia) of over 100000 nM, a GI50 (HS 578T breast) of 3260 nM and a TGI (HS 578T breast) of over 100000 nM. The GI50 (MCF7 breast) was 628 nM, the TGI (MCF7 breast) was over 100000 nM and the GI50 (NCI-H522 lung) was 1890 nM. It also gave a TGI (NCI-H522 lung) of over 100000 nM, a GI50 (BT-549 breast) of 1830 nM and a TGI (BT-549 breast) of over 65800 nM. For the same compound, the GI50 (CCRF-CEM leukemia) was 331 nM and the TGI (CCRF-CEM leukemia) was over 30900 nM.
